Results taken from patent publication US20260256921A1, “BIFUNCTIONAL MOLECULES TO TARGET DEGRADATION OF TUMOR NECROSIS FACTOR” (Biohaven Therapeutics Ltd., priority 2023, published 2026).

Key:
[1] = target: T1, native human ASGPR protein (Homo sapiens, UniProt P07306); test: Octet (BLI) binding to ASGPR protein; conditions: 1:1 binding model
T1 sequence (P07306 1-291): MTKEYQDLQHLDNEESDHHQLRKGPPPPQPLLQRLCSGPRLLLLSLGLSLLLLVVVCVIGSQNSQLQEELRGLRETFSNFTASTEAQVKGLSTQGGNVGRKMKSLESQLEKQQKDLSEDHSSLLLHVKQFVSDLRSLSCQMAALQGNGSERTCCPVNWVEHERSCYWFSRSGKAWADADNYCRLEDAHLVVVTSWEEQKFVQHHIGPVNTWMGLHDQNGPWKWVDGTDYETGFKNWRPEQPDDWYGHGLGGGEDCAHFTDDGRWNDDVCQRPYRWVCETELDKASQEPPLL
Experimental: Protocol. The binding to native human ASGPR protein was measured by Bio-Layer Interferometry (BLI) using the Sartorius Octet 96e platform (Goettingen, Germany). The binding assay was performed using the Ni-NTA (NTA) Dip and Read Biosensors (Sartorius Catalog #18-5101; Goettingen, Germany) in OptiPlate-96F, Black, 96-well, Pinch bar design, plates (Perkin Elmer Catalog #6005270; Waltham, MA, USA) with the following steps: (1) 60 seconds of baseline in Assay Buffer (PBS (Gibco Catalog #10010; Pottstown, PA, USA)+0.05% Tween 20 (v/v) (Fisher BioReagents Catalog BP337-500; Pittsburgh, PA, USA)+0.1% BSA (w/v) (Rockland Catalog #BSA-50; Pottstown, PA, USA) +1 mM CaCl2; Sigma Catalog #21115; Burlington, MA, USA); (2) 600 seconds of loading with 100 nM ASGPR protein; (3) 60 seconds of baseline; (4) 180 seconds of association with a dilution series of ligand consisting of seven concentrations. The eighth tip in the column was run in Assay Buffer to serve as a reference sensor, the signal of which was subtracted from the sample sensors. (5) 180 seconds of dissociation in Assay Buffer.
Results. Data analysis was done using the Octet Data Analysis HT software (Sartorius, Goettingen, Germany). Processed data was globally fit to a 1:1 binding model for determination of the equilibrium dissociation constant (KD).

[2] = target: T2, Recombinant human ASGPR protein (Homo sapiens, UniProt P07306); test: GalNAc-PAA human ASGPR1 competition binding assay; conditions: competition with GalNAc-PAA-biotin 500 ng/ml
T2 construct: purchased R&D Systems 4394-AS
T2 sequence (P07306 1-291): T1 sequence (P07306 1-291)
Experimental: Protocol. Recombinant human ASGPR protein (R&D Systems Catalog #4394-AS; Minneapolis, MN, USA) was reconstituted to 200 μg/ml in Assay Buffer (20 mM HEPES (TEKnova Catalog #H1030; Hollister, CA, USA), 150 mM NaCl (Promega Catalog #V4221; Madison, WI, USA), 1 mM CaCl2 (Alfa Aesar Catalog #J63122; Tewksbury, MA, USA)). Nunc-Immuno™ MicroWell™ 96 well solid plates (Sigma Catalog #M9410; Burlington, MA, USA) were coated with 300 ng of ASGPR protein per well by diluting the protein to 3 μg/ml in Assay Buffer and adding 100 μl to each well. A few wells were left without ASGPR protein for controls in which 100 μl of Assay Buffer were added. The plate was incubated overnight at 4° C. After overnight incubation, coating solution was discarded and the wells were blocked with 150 μl/well of Blocking Buffer (1% Bovine Serum Albumin (BSA) in Assay Buffer; Sigma Catalog #A3059-100G; Burlington, MA, USA) for 2 hours at 4° C. Frozen stock of GalNAc-PAA-biotin (GlycoNZ Catalog #GNZ-0031-BP, 1 mg/ml in Assay Buffer; Auckland, NZ) was thawed and diluted 1:1000 in Assay Buffer to create a 1000 ng/ml 2× working solution. Competitor compounds were reconstituted to 100 mM in DMSO. If compounds were insoluble at this concentration, they were further diluted in DMSO. Compounds were diluted 1 to 12.5 (10 μl DMSO stock diluted to 125 μl) in Assay Buffer, then 5 fold serially diluted. The DMSO concentration in the 2× working solution of the first well is 8%, for a final starting DMSO concentration of 4%. In a separate deep-well plate (NEST Catalog #503501; Woodbridge, NJ, USA), equal amounts of 1000 ng/ml GalNAc-PAA and serially diluted compounds were combined, for a final concentration of 500 ng/ml GalNAc-PAA and 4 mM compound (top concentration), assuming that the compound concentration of the DMSO stock solution was 100 mM. Plates with Blocking Buffer were removed from refrigerator and blocking solution was discarded. The wells were washed with 200 μl of Assay Buffer three times. After the last wash, plates were tapped dry on paper towels to remove excess liquid.
Next, 100 μl of GalNAc-PAA-biotin premixed with serially diluted compounds was added into each well. For control, several wells containing 500 ng/ml GalNAc-PAA-biotin were included. Plates were incubated for 2 hours at room temperature on an orbital shaker at 100 rpm. After incubation, compound solutions were discarded and each well was washed with 200 μl Assay Buffer three times. Streptavidin-HRP (R&D Systems catalogue #DY998; Minneapolis, MN, USA) was diluted 1:200 in Assay Buffer. 100 μl of the diluted Streptavidin-HRP was added to each well and incubated at room temperature for 45 minutes, protected from light. Streptavidin-HRP was then discarded and each well was washed with 200 μl of Assay Buffer three times. 3,3′,5,5′-Tetramethylbenzidine (TMB) Substrate color reagents A and B (R&D Systems catalog #DY999; Minneapolis, MN, USA) were mixed at a ratio of 1:1 and 100 μl was added to each well. After a 5 minute incubation, 50 μl of Stop Solution (R&D Systems catalog #DY994; Minneapolis, MN, USA) was added to each well. Plates were shaken for 10 seconds using the orbital shaker in the plate reader and read at 450 nm. […] Normalized data were analyzed using a nonlinear-fit of normalized data with a four-parameter sigmoidal dose-response variable slope model.

Structure (SMILES) | Octet Kd ASGPR [1] | Ki [2] | Kd [1]
CCC(=O)NC1COC(COCCOCCOCCOCCn2cc(COCCNC(=O)CNC(=O)CCOCCOCCOCCOCCOCCOCCC(=O)N3CCN(Cc4ccc(-c5c[nH]c6ccncc56)c(OCCc5ccc(-c6cccc7ccncc67)cc5)c4)CC3)nn2)C(O)C1O (stereo not shown) [Compound 105] | weak | 600 nM | –
CCC(=O)NC1COC(COCCOCCOCCOCCn2cc(COCC(COCc3cn(CCOCCOCCOCCOCC4OCC(NC(=O)CC)C(O)C4O)nn3)(COCc3cn(CCOCCOCCOCCOCC4OCC(NC(=O)CC)C(O)C4O)nn3)NC(=O)CNC(=O)CCOCCOCCC(=O)N3CCN(Cc4ccc(-c5c[nH]c6ccncc56)c(OCCc5ccc(-c6cccc7ccncc67)cc5)c4)CC3)nn2)C(O)C1O (stereo not shown) [Compound 103] | – | 200 nM | 2.13 nM
CCC(=O)N[C@H]1CO[C@H](COCCOCCOCCOCCn2cc(COCCNC(=O)CNC(=O)CCC(=O)N3CCN(Cc4ccc(-c5c[nH]c6ccncc56)c(OCCc5ccc(-c6cccc7ccncc67)cc5)c4)CC3)nn2)[C@H](O)[C@@H]1O [Compound 106] | – | 1100 nM | > 1000 nM
CCC(=O)NC1COC(COCCOCCOCCOCCn2cc(COCC(COCc3cn(CCOCCOCCOCCOCC4OCC(NC(=O)CC)C(O)C4O)nn3)(COCc3cn(CCOCCOCCOCCOCC4OCC(NC(=O)CC)C(O)C4O)nn3)NC(=O)CNC(=O)CCC(=O)N3CCN(Cc4ccc(-c5c[nH]c6ccncc56)c(OCCc5ccc(-c6cccc7ccncc67)cc5)c4)CC3)nn2)C(O)C1O (stereo not shown) [Compound 104] | – | 200 nM | 1 nM
CCC(=O)N[C@H]1CO[C@H](COCCOCCOCCOCCn2cc(COCCNC(=O)CNC(=O)CCOCCOCCC(=O)N3CCN(Cc4ccc(-c5c[nH]c6ccncc56)c(OCCc5ccc(-c6cccc7ccncc67)cc5)c4)CC3)nn2)[C@H](O)[C@@H]1O [Compound 107] | – | 800 nM | 963 nM
